Results reported in patent US12264134B2 (Merck Sharp & Dohme LLC, priority 2018, dated 2025).

Tests used:
IDO1 [1] = biological target: T1, IDO1 (Homo sapiens, UniProt P14902); assay: IDO1 Human Whole blood Assay; format: cell-based; design: Human whole blood was drawn in sodium heparin coated tubes from healthy internal donors; from tissue; host or cells: human whole blood from healthy donors, stimulated with LPS and IFNγ; conditions: LPS and IFNγ stimulated, 18 h, read-out: Human Whole Blood Potency, IC50
T1 sequence (P14902 whole entry): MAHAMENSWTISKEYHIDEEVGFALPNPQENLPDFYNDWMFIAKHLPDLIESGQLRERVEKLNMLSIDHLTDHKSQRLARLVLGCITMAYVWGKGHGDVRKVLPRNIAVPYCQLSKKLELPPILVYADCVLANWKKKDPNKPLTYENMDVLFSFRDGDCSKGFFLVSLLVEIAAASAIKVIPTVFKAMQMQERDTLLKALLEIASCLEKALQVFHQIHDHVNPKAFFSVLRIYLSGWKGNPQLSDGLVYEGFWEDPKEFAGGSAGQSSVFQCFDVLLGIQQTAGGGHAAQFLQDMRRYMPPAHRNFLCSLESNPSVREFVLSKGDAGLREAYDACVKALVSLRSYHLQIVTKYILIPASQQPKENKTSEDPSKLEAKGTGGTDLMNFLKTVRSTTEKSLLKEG
How it was run: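 Heparinized healthy-donor human whole blood was preincubated 15 min with compound, then stimulated with LPS and IFNγ (100 ng/mL final) for 18 h at 37 °C. Plasma kynurenine was quantified by LC/MS/MS against a D6-kynurenine internal standard, and IC50s came from 4-parameter sigmoidal fits.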

IDO1 [2] = biological target: T1, IDO1; assay: IDO1 Cellular Assay in HeLa Cells Stimulated with IFNγ; format: cell-based; conditions: read-out: HeLa Cell Potency, IC50

SMILES | IC50 (IDO1 [1]) [µM] | IC50 (IDO1 [2]) [µM]
Cc1cccc(N2CCN(C(=O)Cn3nc(C(=O)N4CC[C@H](O)[C@@H](F)C4)c4c3CCCC4)CC2)c1C [Example 468, 1-(4-(2,3-dimethylphenyl)piperazin-1-yl)-2-(3-((3S,4S)-3-fluoro-4-hydroxypiperidine-1-carbonyl)-4,5,6,7-tetrahydro-1H-indazol-1-yl)ethanone] | 0.088 | 0.0019
Cc1cccc(N2CCN(C(=O)Cn3nc(C(=O)N4CCO[C@@H](CO)C4)c4c3CCCC4)CC2)c1C [Example 470, (R)-1-(4-(2,3-dimethylphenyl)piperazin-1-yl)-2-(3-(2-(hydroxymethyl)morpholine-4-carbonyl)-4,5,6,7-tetrahydro-1H-indazol-1-yl)ethanone] | 0.031 | 0.00262
CC(=O)NC1CCN(C(=O)c2nn(CC(=O)N3CCN(c4cccc(C)c4C)CC3)c3c2CCCC3)CC1 [Example 471, N-(1-(1-(2-(4-(2,3-dimethylphenyl)piperazin-1-yl)-2-oxoethyl)-4,5,6,7-tetrahydro-1H-indazole-3-carbonyl)piperidin-4-yl) acetamide] | 0.065 | 0.00263
Cc1cccc(N2CCN(C(=O)Cn3nc(C(=O)N4CC[C@@H](O)[C@H](F)C4)c4c3CCCC4)CC2)c1C [Example 472, 1-(4-(2,3-dimethylphenyl)piperazin-1-yl)-2-(3-((3R,4R)-3-fluoro-4-hydroxypiperidine-1-carbonyl)-4,5,6,7-tetrahydro-1H-indazol-1-yl)ethanone] | 0.208 | 0.00337
Cc1cccc(N2CCN(C(=O)Cn3nc(C(=O)N4CCC(NC(=O)CO)CC4)c4c3CCCC4)CC2)c1C [Example 473] | 0.101 | 0.00416
Cc1cccc(N2CCN(C(=O)Cn3nc(C(=O)N4CC[C@H](O)[C@H](F)C4)c4c3CCCC4)CC2)c1C [Example 475, 1-(4-(2,3-dimethylphenyl)piperazin-1-yl)-2-(3-((3R,4S)-3-fluoro-4-hydroxypiperidine-1-carbonyl)-4,5,6,7-tetrahydro-1H-indazol-1-yl)ethanone] | 0.052 | 0.00426
Cc1cccc(N2CCN(C(=O)Cn3nc(C(=O)N4CC[C@@H](O)[C@@H](F)C4)c4c3CCCC4)CC2)c1C [Example 476, 1-(4-(2,3-dimethylphenyl)piperazin-1-yl)-2-(3-((3S,4R)-3-fluoro-4-hydroxypiperidine-1-carbonyl)-4,5,6,7-tetrahydro-1H-indazol-1-yl)ethanone] | 0.164 | 0.00545
Cc1cccc(N2CCN(C(=O)Cn3nc(C(=O)N4CCC(O)(CF)CC4)c4c3CCCC4)CC2)c1C [Example 477, 1-(4-(2,3-dimethylphenyl)piperazin-1-yl)-2-(3-(4-(fluoromethyl)-4-hydroxypiperidine-1-carbonyl)-4,5,6,7-tetrahydro-1H-indazol-1-yl)ethanone] | 0.061 | 0.00553
Cc1cccc(N2CCN(C(=O)Cn3nc(C(=O)N4CCC(NC(=O)CCO)CC4)c4c3CCCC4)CC2)c1C [Example 478, N-(1-(1-(2-(4-(2,3-dimethylphenyl)piperazin-1-yl)-2-oxoethyl)-4,5,6,7-tetrahydro-1H-indazol-3-carbonyl)piperidin-4-yl)-3-hydroxypropanamide] | 0.137 | 0.00715
Cc1cccc(N2CCN(C(=O)Cn3nc(C(=O)N4CCC(N)CC4)c4c3C[C@H]3C[C@@H]43)CC2)c1C [Example 479, 2-((3bR,4aR)-3-(4-aminopiperidine-1-carbonyl)-3b,4,4a,5-tetrahydro-1H-cyclopropa [3,4]cyclopenta[1,2-c]pyrazol-1-yl)-1-(4-(2,3-dimethylphenyl)piperazin-1-yl)ethanone] | 0.23 | 0.00751
Cc1cccc(N2CCN(C(=O)Cn3nc(C(=O)N4CCN(C(=O)CO)CC4)c4c3CCCC4)CC2)c1C [Example 480, 1-(4-(2,3-dimethylphenyl)piperazin-1-yl)-2-(3-(4-(2-hydroxyacetyl)piperazin-1-carbonyl)-4,5,6,7-tetrahydro-1H-indazol-1-yl)ethanone] | 0.09 | 0.00874
Cc1cccc(N2CCN(C(=O)Cn3nc(C(=O)N4CCC(O)CC4)c4c3CCC4)C3(CC3)C2)c1C [compound 392] | 2.71 | 0.00321
